Test [1] has as its target T1, sheep TMEM16A (Ovis aries, UniProt A0ACI6NM12).
T1 sequence (A0ACI6NM12 1-1040): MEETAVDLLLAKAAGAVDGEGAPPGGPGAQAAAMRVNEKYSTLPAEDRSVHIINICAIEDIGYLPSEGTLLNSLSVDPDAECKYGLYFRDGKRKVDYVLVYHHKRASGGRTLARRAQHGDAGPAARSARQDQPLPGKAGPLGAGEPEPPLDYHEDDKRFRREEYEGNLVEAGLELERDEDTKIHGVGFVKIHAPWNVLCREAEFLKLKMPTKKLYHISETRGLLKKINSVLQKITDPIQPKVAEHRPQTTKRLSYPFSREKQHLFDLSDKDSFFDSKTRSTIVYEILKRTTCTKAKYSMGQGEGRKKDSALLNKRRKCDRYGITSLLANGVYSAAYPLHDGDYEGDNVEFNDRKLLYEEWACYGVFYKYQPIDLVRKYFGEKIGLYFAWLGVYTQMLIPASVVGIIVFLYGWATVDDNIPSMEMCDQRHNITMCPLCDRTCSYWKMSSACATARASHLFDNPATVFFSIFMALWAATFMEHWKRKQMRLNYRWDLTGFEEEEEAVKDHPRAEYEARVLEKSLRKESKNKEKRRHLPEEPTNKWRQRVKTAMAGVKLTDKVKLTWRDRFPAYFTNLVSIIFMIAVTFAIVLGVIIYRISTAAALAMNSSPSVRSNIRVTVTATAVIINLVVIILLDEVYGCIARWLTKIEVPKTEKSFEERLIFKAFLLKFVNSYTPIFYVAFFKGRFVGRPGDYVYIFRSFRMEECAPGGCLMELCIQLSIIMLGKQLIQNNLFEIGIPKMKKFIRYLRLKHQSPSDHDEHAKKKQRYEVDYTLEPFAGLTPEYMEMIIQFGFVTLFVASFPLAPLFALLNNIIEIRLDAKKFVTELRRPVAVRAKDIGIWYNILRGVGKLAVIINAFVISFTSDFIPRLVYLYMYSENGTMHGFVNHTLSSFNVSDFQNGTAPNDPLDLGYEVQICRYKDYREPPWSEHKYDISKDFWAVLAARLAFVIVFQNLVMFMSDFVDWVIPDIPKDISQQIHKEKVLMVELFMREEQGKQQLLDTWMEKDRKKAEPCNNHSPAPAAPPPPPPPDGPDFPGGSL
As to the kind of experiment: whole-cell patch clamp. Type of test: cell-based.

Test [2] addresses T2, TMEM16A (anoctamin-1) (Homo sapiens, UniProt Q5XXA6).
T2 sequence (Q5XXA6 1-986): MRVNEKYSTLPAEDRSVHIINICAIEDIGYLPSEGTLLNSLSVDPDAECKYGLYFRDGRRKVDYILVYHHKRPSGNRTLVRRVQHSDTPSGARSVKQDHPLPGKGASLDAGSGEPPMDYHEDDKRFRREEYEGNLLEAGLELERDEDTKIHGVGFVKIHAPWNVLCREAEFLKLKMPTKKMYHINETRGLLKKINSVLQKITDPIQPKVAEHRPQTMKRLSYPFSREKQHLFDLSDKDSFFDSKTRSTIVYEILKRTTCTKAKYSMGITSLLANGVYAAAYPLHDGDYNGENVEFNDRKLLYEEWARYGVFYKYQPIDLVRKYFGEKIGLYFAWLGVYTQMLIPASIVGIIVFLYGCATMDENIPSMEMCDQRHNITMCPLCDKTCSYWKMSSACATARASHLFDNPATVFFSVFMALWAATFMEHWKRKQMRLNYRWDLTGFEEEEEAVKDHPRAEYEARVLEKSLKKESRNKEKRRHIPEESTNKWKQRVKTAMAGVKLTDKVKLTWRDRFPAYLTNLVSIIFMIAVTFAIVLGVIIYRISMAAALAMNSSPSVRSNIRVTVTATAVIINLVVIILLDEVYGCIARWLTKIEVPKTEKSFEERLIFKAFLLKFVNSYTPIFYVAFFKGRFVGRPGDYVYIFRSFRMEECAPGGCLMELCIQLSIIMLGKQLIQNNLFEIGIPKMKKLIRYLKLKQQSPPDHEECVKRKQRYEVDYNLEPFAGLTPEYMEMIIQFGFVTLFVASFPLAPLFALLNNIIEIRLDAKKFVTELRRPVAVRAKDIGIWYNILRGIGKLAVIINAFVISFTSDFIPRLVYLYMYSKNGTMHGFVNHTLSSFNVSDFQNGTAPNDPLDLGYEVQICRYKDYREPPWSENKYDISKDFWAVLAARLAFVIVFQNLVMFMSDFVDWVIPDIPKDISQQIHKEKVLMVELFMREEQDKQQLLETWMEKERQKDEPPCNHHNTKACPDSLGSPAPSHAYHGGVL
In words: whole-cell patch clamp. Type of test: cell-based. (In general: The patch-clamp technique gives a direct electrical read-out from membranes.)

This note sets out measurements from paper PMC7159426 (American Journal of Respiratory and Critical Care Medicine, 2020).

As for ETX001, the values for the 50% effective concentration (EC50) in test [1] and in test [2] were 127 ± 21 nM and 116 ± 16 nM, respectively.
